Measurements: ChEMBL document CHEMBL5661943, “ASAP - In vitro antiviral effect” (2024)
pEC50: −log10 of the molar value. Several values for one entry are separate records, joined by “and”; a condition that tells them apart may be missing. Identical values can stand only once.

Columns and labels:
Zika virus = assay: Functional CPE-based assay to measure dose dependent changes in antiviral-drug inhibitory efficacy against Zika virus MR766 in Vero E6 miRFP670 cells (cotreated with P-gp inhibitor, CP100356). Cells are treated with antiviral candidates that are serially diluted. EC50 is reported via analysis of MTS assay as a readout of CPE. The assay has been performed by KU Leuven.; type: organism-based, Chlorocebus sabaeus, Vero C1008
dengue virus type 2 = assay: Functional assay to measure dose dependent changes in antiviral-drug inhibitory efficacy against Dengue virus type 2 New Guinea C in Vero E6 miRFP670 cells (cotreated with P-gp inhibitor, CP100356). Cells are treated with antiviral candidates that are serially diluted, following infection, cells are fixed. EC50 is reported via analysis of fluorescence intensity using high-content imager. The …; type: organism-based, Chlorocebus sabaeus, Vero C1008; details: for EC90: P-gp concentration 500 nM, P-gp inhibitor CP100356

## CO[C@H]1C[C@H](n2ncc3c(C(=O)Nc4ccc5c(c4)CNC5)cc(Cl)cc32)C1
Zika virus; Zika virus, Vero C1008
  pEC50: 5.51
  EC90: 3.53 µM
Dengue virus type 2; Dengue virus, Vero C1008
  pEC50: < 4.90
Dengue virus type 2; Dengue virus, Vero C1008, Baseline response 0 %, Hill slope 0.569, Maximum measured 146.378 %, Maximum response 100 %, Minimum measured 74.589 %, R squared 0.043
  EC90: > 12.5 µM

## N#Cc1ccc(-c2nc3c(C(=O)Nc4ccc5c(c4)CNC5)cc(F)cc3[nH]2)cc1
Zika virus; Baseline response 0 %, Hill slope 0.2, Maximum measured 29.739 %, Maximum response 100 %, Minimum measured 4.071 %, P-gp concentration 500 nM, R squared 0.256, P-gp inhibitor CP100356
  EC90: > 50 µM
Zika virus; Zika virus, Vero C1008
  pEC50: < 4.30
Zika virus; Zika virus, Vero C1008, Baseline response 0 %, Hill slope 0.539, Maximum measured 18.428 %, Maximum response 100 %, Minimum measured 0.213 %, P-gp concentration 500 nM, R squared 0.888, P-gp inhibitor CP100356
  EC90: > 50 µM
Dengue virus type 2; Dengue virus, Vero C1008, Maximum measured 143.39 %, Minimum measured 94.915 %
  EC90: > 50 µM
Dengue virus type 2; Dengue virus, Vero C1008, Maximum measured 155.678 %, Minimum measured 70.057 %
  EC90: > 6.25 µM
Dengue virus type 2; vero c1008
  pEC50: < 4.30

## O=C1Cc2c(cccc2C(=O)Nc2ccc3c(c2)CCNCC3)N1
Zika virus; Zika virus, Vero C1008
  pEC50: < 4.30
Zika virus; Zika virus, Vero C1008, Maximum measured 3.486 %, Minimum measured -0.899 %, P-gp concentration 500 nM, P-gp inhibitor CP100356
  EC90: > 50 µM
Dengue virus type 2; Dengue virus, Vero C1008
  pEC50: < 4.30
Dengue virus type 2; Dengue virus, Vero C1008, Maximum measured 144.677 %, Minimum measured 92.434 %
  EC90: > 50 µM

## O=C(NCC(F)F)[C@H](Nc1ccc2c(c1)CNC2)c1cc(F)cc2[nH]ccc12
Zika virus; Zika virus, Vero C1008
  pEC50: < 4.30
Zika virus; Zika virus, Vero C1008, Baseline response 0 %, Hill slope 0.152, Maximum measured 3.288 %, Maximum response 100 %, Minimum measured 0.363 %, P-gp concentration 500 nM, R squared 0.104, P-gp inhibitor CP100356
  EC90: > 50 µM
Dengue virus type 2; Dengue virus, Vero C1008
  pEC50: < 4.30
Dengue virus type 2; Dengue virus, Vero C1008, Maximum measured 207.16 %, Minimum measured 119.939 %
  EC90: > 50 µM

## O=C(Nc1ccc2c(c1)CNC2)c1cc(F)cc2[nH]c(-c3ccc(F)cc3)nc12
Zika virus; Zika virus, Vero C1008
  pEC50: < 4.30
Zika virus; Zika virus, Vero C1008, Baseline response 0 %, Hill slope 2.324, Maximum measured 27.659 %, Maximum response 100 %, Minimum measured -7.999 %, P-gp concentration 500 nM, R squared 0.219, P-gp inhibitor CP100356
  EC90: > 50 µM
Dengue virus type 2; Dengue virus, Vero C1008
  pEC50: < 4.30
Dengue virus type 2; Dengue virus, Vero C1008, Maximum measured 176.058 %, Minimum measured 96.502 %
  EC90: > 50 µM

## O=C(Nc1ccc2c(c1)CNC2)c1cc(Cl)cc2[nH]c(-c3c[nH]c(=O)c(Br)c3)nc12
Zika virus; Zika virus, Vero C1008
  pEC50: < 4.30
Zika virus; Zika virus, Vero C1008, Baseline response 0 %, Hill slope 0.525, Maximum measured 33.05 %, Maximum response 100 %, Minimum measured 2.151 %, P-gp concentration 500 nM, R squared 0.865, P-gp inhibitor CP100356
  EC90: > 50 µM
Dengue virus type 2; Dengue virus, Vero C1008
  pEC50: < 4.30
Dengue virus type 2; Dengue virus, Vero C1008, Maximum measured 259.566 %, Minimum measured 84.768 %
  EC90: > 50 µM

## O=C(Nc1ccc2c(c1)CNC2)c1cc(Cl)cc2[nH]c(-c3ccc(F)cc3O)nc12
Zika virus; Zika virus, Vero C1008
  pEC50: < 6.11
Zika virus; Zika virus, Vero C1008, Baseline response 0 %, Hill slope 0.819, Maximum measured -0.871 %, Maximum response 100 %, Minimum measured -1.788 %, P-gp concentration 500 nM, R squared 0.426, P-gp inhibitor CP100356
  EC90: > 0.781 µM
Dengue virus type 2; Dengue virus, Vero C1008
  pEC50: < 5.81
Dengue virus type 2; Dengue virus, Vero C1008, Maximum measured 186.201 %, Minimum measured 124.759 %
  EC90: > 1.56 µM

## CC1=C(c2cc(NC(=O)c3cc(Cl)cc4[nH]ncc34)cc3c2CNC3)CCC1=O
Zika virus; Zika virus, Vero C1008
  pEC50: < 4.30
Zika virus; Zika virus, Vero C1008, Baseline response 0 %, Hill slope 0.456, Maximum measured 3.948 %, Maximum response 100 %, Minimum measured -0.924 %, P-gp concentration 500 nM, R squared 0.076, P-gp inhibitor CP100356
  EC90: > 50 µM
Dengue virus type 2; Dengue virus, Vero C1008
  pEC50: < 4.30
Dengue virus type 2; Dengue virus, Vero C1008, Maximum measured 165.308 %, Minimum measured 53.221 %
  EC90: > 50 µM

## O=C(Nc1ccc2c(c1)CNC2)c1ccc2c(C3=CCNCC3)csc2c1
Zika virus; Zika virus, Vero C1008
  pEC50: 5.03
Zika virus; Zika virus, Vero C1008, Baseline response 0 %, Hill slope 1.989, Maximum measured 64.405 %, Maximum response 100 %, Minimum measured 3.372 %, P-gp concentration 500 nM, R squared 0.951, P-gp inhibitor CP100356
  EC90: > 12.5 µM
Dengue virus type 2; Dengue virus, Vero C1008
  pEC50: 5.88
Dengue virus type 2; Dengue virus, Vero C1008, Baseline response 0 %, Hill slope -1.321, Maximum measured 86.909 %, Maximum response 100 %, Minimum measured 20.548 %, R squared 0.914
  EC90: > 6.25 µM

## Cc1ncc(-c2cc(F)cc(C(=O)Nc3ccc4c(c3)CNC4)c2)o1
Zika virus; Zika virus, Vero C1008
  pEC50: < 5.20
Zika virus; Zika virus, Vero C1008, Baseline response 0 %, Hill slope 1.881, Maximum measured 43.228 %, Maximum response 100 %, Minimum measured 5.06 %, P-gp concentration 500 nM, R squared 0.9, P-gp inhibitor CP100356
  EC90: > 6.25 µM
Dengue virus type 2; Dengue virus, Vero C1008
  pEC50: 4.78
Dengue virus type 2; Dengue virus, Vero C1008, Baseline response 0 %, Hill slope -0.224, Maximum measured 78.762 %, Maximum response 100 %, Minimum measured 32.755 %, R squared 0.24
  EC90: > 50 µM

## O=C(Nc1cnc2c(c1)CNC2)c1cc(F)cc2[nH]ncc12
Zika virus; Zika virus, Vero C1008
  pEC50: < 4.30
Zika virus; Zika virus, Vero C1008, Baseline response 0 %, Hill slope 2.313, Maximum measured 10.311 %, Maximum response 100 %, Minimum measured -0.319 %, P-gp concentration 500 nM, R squared 0.353, P-gp inhibitor CP100356
  EC90: > 50 µM
Dengue virus type 2; Dengue virus, Vero C1008
  pEC50: < 4.30
Dengue virus type 2; Dengue virus, Vero C1008, Maximum measured 142.482 %, Minimum measured 85.178 %
  EC90: > 50 µM

## O=C(Nc1cc2c(c(-c3c[nH]c(=O)c(F)c3)c1)CNC2)c1cc(F)cc2[nH]ncc12
Zika virus; Zika virus, Vero C1008
  pEC50: < 4.30
Zika virus; Zika virus, Vero C1008, Baseline response 0 %, Hill slope 0.515, Maximum measured 9.878 %, Maximum response 100 %, Minimum measured 0.944 %, P-gp concentration 500 nM, R squared 0.362, P-gp inhibitor CP100356
  EC90: > 50 µM
Dengue virus type 2; Dengue virus, Vero C1008
  pEC50: < 4.60
Dengue virus type 2; Dengue virus, Vero C1008, Maximum measured 138.883 %, Minimum measured 79.511 %
  EC90: > 25 µM

## COc1cccc(-c2nc3c(C(=O)Nc4ccc5c(c4)CNC5)cc(F)cc3[nH]2)c1
Zika virus; Zika virus, Vero C1008
  pEC50: < 4.30
Zika virus; Zika virus, Vero C1008, Baseline response 0 %, Hill slope -1.02, Maximum measured 11.362 %, Maximum response 100 %, Minimum measured -3.329 %, P-gp concentration 500 nM, R squared 0.203, P-gp inhibitor CP100356
  EC90: > 50 µM
Dengue virus type 2; Dengue virus, Vero C1008
  pEC50: < 4.30
Dengue virus type 2; Dengue virus, Vero C1008, Maximum measured 205.039 %, Minimum measured 143.371 %
  EC90: > 50 µM

## Cc1cc(-c2cc(F)cc(C(=O)Nc3ccc4c(c3)CNC4)c2)[nH]n1
Zika virus; Zika virus, Vero C1008
  pEC50: 4.71
Zika virus; Zika virus, Vero C1008, Baseline response 0 %, Hill slope 1.404, Maximum measured 64.496 %, Maximum response 100 %, Minimum measured 4.475 %, P-gp concentration 500 nM, R squared 0.907, P-gp inhibitor CP100356
  EC90: > 25 µM
Dengue virus type 2; Dengue virus, Vero C1008
  pEC50: < 4.30
Dengue virus type 2; Dengue virus, Vero C1008, Baseline response 0 %, Hill slope 1.641, Maximum measured 129.562 %, Maximum response 100 %, Minimum measured 66.397 %, R squared 0.205
  EC90: > 50 µM

## O=C(Nc1ccc2c(c1)CNC2)c1cc(F)cc(-c2cn[nH]c2)c1
Zika virus; Zika virus, Vero C1008
  pEC50: < 4.30
Zika virus; Zika virus, Vero C1008, Baseline response 0 %, Hill slope 1.1, Maximum measured 49.9 %, Maximum response 100 %, Minimum measured 5.357 %, P-gp concentration 500 nM, R squared 0.912, P-gp inhibitor CP100356
  EC90: > 50 µM
Dengue virus type 2; Dengue virus, Vero C1008
  pEC50: 5.95
Dengue virus type 2; Dengue virus, Vero C1008, Baseline response 0 %, EC90 CI (lower) 0.042 uM, EC90 CI (upper) 0.221 uM, Hill slope -0.898, Maximum measured 65.167 %, Maximum response 100 %, Minimum measured 5.409 %, R squared 0.901
  EC90: 12.8 µM

## O=C(Nc1ccc2c(c1)CNC2)c1cc(F)cc2nn(-c3ccccn3)nc12
Zika virus; Baseline response 0 %, Hill slope 0.342, Maximum measured 8.101 %, Maximum response 100 %, Minimum measured -1.287 %, P-gp concentration 500 nM, R squared 0.284, P-gp inhibitor CP100356
  EC90: > 50 µM
Zika virus; Baseline response 0 %, Hill slope -0.391, Maximum measured 8.995 %, Maximum response 100 %, Minimum measured 1.943 %, P-gp concentration 500 nM, R squared 0.39, P-gp inhibitor CP100356
  EC90: > 3.12 µM
Zika virus; vero c1008
  pEC50: < 4.30
Dengue virus type 2; Baseline response 0 %, EC90 CI (lower) 0.77 uM, EC90 CI (upper) 2.483 uM, Hill slope -4.828, Maximum measured 102.327 %, Maximum response 100 %, Minimum measured 2.546 %, R squared 0.795
  EC90: 3.44 µM
Dengue virus type 2; Dengue virus, Vero C1008, Baseline response 0 %, EC90 CI (lower) 0.427 uM, EC90 CI (upper) 5.546 uM, Hill slope -1.321, Maximum measured 90.171 %, Maximum response 100 %, Minimum measured 71.834 %, R squared 0.697
  EC90: > 6.25 µM
Dengue virus type 2; vero c1008
  pEC50: < 5.20 and 5.66

## N#Cc1cccc(-c2nc3c(C(=O)Nc4ccc5c(c4)CNC5)cc(F)cc3[nH]2)c1
Zika virus; Zika virus, Vero C1008
  pEC50: < 4.30
Zika virus; Zika virus, Vero C1008, Baseline response 0 %, Hill slope 0.393, Maximum measured 36.291 %, Maximum response 100 %, Minimum measured 0.187 %, P-gp concentration 500 nM, R squared 0.325, P-gp inhibitor CP100356
  EC90: > 50 µM
Dengue virus type 2; Dengue virus, Vero C1008
  pEC50: < 5.20
Dengue virus type 2; Dengue virus, Vero C1008, Baseline response 0 %, Hill slope 1.695, Maximum measured 158.102 %, Maximum response 100 %, Minimum measured 53.067 %, R squared 0.44
  EC90: > 6.25 µM
